The record followed here is patent US5274118A, “Process for preparing (2R)-methyl-4,4,4-trifluorobutylamine” (Imperial Chemical Industries PLC, priority 1990, dated 1993).

One data set relates to leukotriene LTD4. Kind of data set: guinea-pig aerosol test (LTD4 aerosol challenge, onset of dyspnea). The format is in vivo. The following applies: guinea-pigs. On the procedure:
According to this procedure, guinea-pigs are pre-dosed with test compound as a solution in poly(ethylene glycol) (generally 1 hour) before an aerosol challenge of leukotriene LTD4 (starting with 2 ml of a 30 microgram/ml solution) and the effect of the test compound on the average time of leukotriene initiated change in breathing pattern (such as onset of dyspnea) recorded and compared with that in undosed, control guinea-pigs. Percent protection engendered by a test compound was calculated from the time delay to the onset of dyspnea compared to that for control animals.

Data set [1] addresses T1, leukotrienes LTC4, LTD4 and/or LTE4 (Cavia porcellus, UniProt Q2NNR5).
T1 construct: from tissue
T1 sequence (Q2NNR5 1-340): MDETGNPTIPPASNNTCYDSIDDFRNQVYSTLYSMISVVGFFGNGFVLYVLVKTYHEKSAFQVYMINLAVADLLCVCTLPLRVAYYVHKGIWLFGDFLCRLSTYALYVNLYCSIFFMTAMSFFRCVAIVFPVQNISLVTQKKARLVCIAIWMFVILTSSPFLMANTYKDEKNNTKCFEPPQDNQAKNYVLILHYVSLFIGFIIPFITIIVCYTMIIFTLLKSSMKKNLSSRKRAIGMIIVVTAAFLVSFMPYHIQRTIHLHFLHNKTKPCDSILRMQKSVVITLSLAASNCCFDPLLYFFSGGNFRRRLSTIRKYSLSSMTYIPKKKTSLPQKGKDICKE
Kind of data set: receptor-ligand binding assay described by Aharony. The following applies: typically determined.

The structures appear in SMILES notation.

With `COc1cc(C(=O)NS(=O)(=O)c2ccccc2C)ccc1Cc1cn(C)c2ccc(C(=O)NC[C@H](C)CC(F)(F)F)cc12` [compound of formula I substantially in the form of the (R)-enantiomer, (R)-3-Methoxy-4-[1-methyl-5-(2-methyl-4,4,4-trifluorobutylcarbamoyl)indol-3-ylmethyl]-N-(2-methylphenylsulfonyl)benzamide], the ED50 (as a rule, the midpoint of the dose-response relation) with leukotriene LTD4 (Cavia porcellus, oral administration, pre-dosed generally 1 hour before LTD4 aerosol challenge, read-out: ED50 (protection against LTD4-induced dyspnea)) was 1.1 µmol/kg. Further, the untoward side-effects entry with leukotriene LTD4 (oral, at several multiples of the minimum effective dose) is “without any indication of untoward side-effects”. In addition, the Ki (commonly the equilibrium dissociation constant of an inhibitor or competing ligand from its target) in data set [1] is 398 pM.
